For 1 compound, IC50 results are on record in article PMC2853259 (Analytical biochemistry, 2010).

In this assay the target is Paraoxonase 1 (PON1) (Homo sapiens, UniProt P27169). In kind it is cell-based.

The IC50 is the concentration needed to halve the response being measured. A low value points to greater potency.

Chain of Paraoxonase 1 (PON1) (P27169 2-355): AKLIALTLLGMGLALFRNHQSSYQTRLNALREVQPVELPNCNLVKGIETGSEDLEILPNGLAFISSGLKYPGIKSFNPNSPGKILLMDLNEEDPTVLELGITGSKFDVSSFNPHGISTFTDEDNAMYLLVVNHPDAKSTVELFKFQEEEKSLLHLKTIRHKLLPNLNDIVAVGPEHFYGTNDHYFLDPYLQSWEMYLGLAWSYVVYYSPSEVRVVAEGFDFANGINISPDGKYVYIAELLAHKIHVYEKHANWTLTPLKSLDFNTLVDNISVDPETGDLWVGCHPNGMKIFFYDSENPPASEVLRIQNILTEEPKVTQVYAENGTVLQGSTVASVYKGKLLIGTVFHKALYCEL

Compound `Oc1ccc2ccccc2n1` [2HQ, 2-hydroxyquinoline] showed an IC50 of 5.4 ± 3.6 µM.
